The source of these data is patent US20240277718A1, “USE OF […] TO REDUCE ORGAN FIBROSIS” (SUNN[…].R.L., priority 2021, published 2024).

“Also recorded” adds a separate entry of the source.

The subject of assay [1] is genes encoding TGF-b, Wnt1, Wnt5, Wnt10, DKK1 and Col1A1. In words: Quantitative Real-Time PCR of fibrosis-related genes in lungs in HOCI-induced systemic fibrosis. The format is in vivo, Balb/c mice. Particulars: HOCI+Istra vs HOCI group, 10 mg/kg per day intraperitoneally, week 4 to 6, FIG. 4. As to the method:
Quantitative Real Time PCR Method: Reverse transcription was performed using the Super-Script IV Reverse Transcriptase synthesis kit (Thermo Fisher Scientific) and random primers as indicated in the manufacturer's protocol and 1 μl of cDNA was then used for the PCR reaction by using ready-made primers (to identify Wnt1, Wnt 5, Wnt 10, TGF-b, Collagen 1A1 and DKK1) and Thermo Fisher Scientific master mix in the QuantStudio 6 Flex instrument from Applied Biosystems.
(§1) In fact, data obtained from literature indicate that it is possible to find a significant fibrosis in the major organs such as skin, heart, large vessels and lungs, already at the fourth week of induction of the disease: for this reason, the treatment with istradefylline started at the fourth week, carrying on both induction and treatment up to the sixth week.
Animals were divided into 3 groups of 7 animals each. […]
Lungs obtained from the animals of all the experimental groups were subjected to the extraction of the total RNA which was then analyzed with the quantitative Real-Time PCR and specific primers to evaluate the expression of the genes encoding for TGF-b, Wnt1, Wnt5, Wnt10, DKK1 and Col1A1 (type I collagen) measured compared to the expression of the housekeeping gene, b-actin.
(Real-time PCR tracks product formation cycle by cycle.)

For assay [2], the system named is vimentin and b-catenin (Wnt/b-catenin pathway). In words: Immunofluorescence for vimentin and b-catenin in skin, heart and lung in HOCI-induced systemic fibrosis. Format: in vivo, Balb/c mice. To be noted: HOCI+Istra vs HOCI group; all studied tissues (skin, lung, heart); 10 mg/kg per day intraperitoneally, week 4 to 6; FIG. 3. As to the method:
Immunofluorescence methods to mark vimentin and b-catenin: For immunohistochemistry the 5 μm tissue slices were incubated with 10 mmol/pH 6.0 citrate buffer in a temperature of 98° C. for 20 min. To reduce the background fluorescence, tissues were kept in a humidified chamber in 2 mmol/L glycine for 30 minutes. For the blocking of nonspecific antigenic sites, incubation was performed for 1 hour with 5% fetal bovine serum diluted in PBS, with the addition of 3% serum bovine albumin and 1% Triton X-100. Primary antibodies (p-Ser552 b-catenin, diluted 1:200; Cell Signal Technologies; Vimentin monoclonal antibody diluted 1:800; Sigma-Aldrich) were diluted in PBS and kept for 1 hour at room temperature. A species-specific antibody from Vector Laboratories was used as a negative control of the reaction. Secondary antibodies labeled with anti-rabbit IgG-fluorescein isothiocyanate (green fluorescence) or with anti-mouse IgG Alexa Fluor 555 (fred fluorescence) were kept for 1 hour at room temperature before mounting the slides and to observe the reaction under the microscope. […]

In assay [3] the test system is systemic fibrosis induced with hypochlorous acid (HOCI) in Balb/c mice. The assay can be described thus: Histological analysis (hematoxylin/eosin, Masson's trichrome, Picrosirius red) of skin, heart and lung in HOCI-induced systemic fibrosis. The format is in vivo. To be noted: HOCI+Istra vs HOCI group, week 4 to 6. On the procedure: Histological analysis, hematoxylin/eosin staining, Masson's trichrome and Picrosirius red: Tissues for histological and immunohistochemical analyses were fixed in 10% buffered formalin for 24 hours and then included according to standard paraffin protocol. The classic hematoxylin/eosin, Masson and Pricrosirius stainings were performed on 5-6 μm thickness tissue slices that were routinely processed using an automated histology preparer.
as §1
Animals were divided into 3 groups of 7 animals each. A group was used as control group and was the group of untreated animals (“Sham”); a group was subcutaneously treated with 400 μl of an aqueous solution of hypochlorous acid (HOCI) for 6 weeks; lastly a group was subcutaneously treated with the above-mentioned solution of HOCI at the dose of 400 μl (for 6 weeks) and with istradefylline (from week 4 up to week 6) at the dose of 10 mg/kg per day intraperitoneally and 1 hour after HOCI injection (“HOCI+Istra”). […]

As for `CCn1c(=O)c2c(nc(/C=C/c3ccc(OC)c(OC)c3)n2C)n(CC)c1=O` [istradefylline, 8-[(1E)-2-(3,4-Dimethoxyphenyl)ethenyl]-1,3-diethyl-3,7-dihydro-7-methyl-1H-purine-2,6-dione], the “expression of genes related to the fibrotic process (Wnt1, 5, 10 and TGF-b; 'all 3 targets') relative to b-actin” value in assay [1] is recorded as “significant reduction in the expression”. In assay [2], the “positivity of b-catenin (immunofluorescence)” value is recorded as “significantly reduced the positivity” and the “positivity of vimentin (immunofluorescence, fibroblast marker)” value is “significantly reduced the positivity”. Moreover, the “thickening in skin and at the myocardial and pulmonary level (hematoxylin/eosin)” value in assay [3] (istradefylline 10 mg/kg per day intraperitoneally, FIG. 1) is listed as “significantly reduce the thickening”. Further, the “collagen fibers deposition (Masson trichrome and Picrosirius red)” value in assay [3] (skin, lung and heart tissues, 10 mg/kg per day intraperitoneally, FIG. 2, 10 mg/kg/day) is reported as “lower deposition of collagen fibers; also recorded: significant reduction collagen fibers deposition”.
